The source of these data is patent US10416175B2, “Opioid detection” (Randox Laboratories Limited, priority 2015, dated 2019).

Converted amounts (≈) assume the structure as drawn. “And” between values parts separate entries of the source, which are not always exact repeats. Identical values can stand only once. Counter-ions that a name gives are not always drawn.

For series [1] the following is noted: over 24-72 hours, following oral administration of tramadol; cited from earlier work.
The subject of series [2] is Randox Tramadol commercial immunoassay. The settings on record: cited from earlier work.
The test system of series [3] is IDS Tramadol commercial immunoassay. The settings on record: cited from earlier work.
Series [4] has as its system antibody raised against Immunogen-2. The series is described as follows: Competitive ELISA with polyclonal antibody raised against Immunogen-2, Tracer-1 as detecting agent. The settings on record: for % CR: relative to O-desmethyltramadol = 100. The class given is binding, sheep. As for the experimental part: Pre-immunization blood samples are collected from sheep. In order to generate polyclonal antisera, 2 mgs of the immunogen (structure 1) is prepared in PBS, mixed at a ratio of 50% immunogen in PBS to 50% Freund's Complete adjuvant (Sigma, Product Number F5881) and emulsified by repeatedly passing the mixture through a tip on the end of a 1 ml syringe, until it reaches the required semi-solid consistency. 1.1 ml of the emulsified mixture is injected intramuscularly into each host animal (sheep) as the primary immunisation dose. Further injections (boosts) are prepared (1 mg of immunogen is prepared in PBS and mixed at a ratio of 50% Immunogen in PBS/50% Freunds Incomplete adjuvant, Sigma, Product Number—F5506). Boost injections are delivered intramuscularly at monthly intervals, 1 ml per animal. Serum is sampled monthly by collection of whole blood from the jugular vein for evaluation of the antibody titre. The degree of antibody purification required depends on the intended application. For many purposes, there is no requirement for purification of the serum, however, in other cases, such as, where the antibody is to be immobilised on a solid support, purification steps (such as caprylic acid/ammonium sulphate precipitation) can be taken to remove undesired material and eliminate non-specific binding. In another embodiment, the purification is by immunoglobulin precipitation, antigen-specific affinity purification, column chromatography, such as, size-exclusion chromatography or ion exchange chromatography.
The polyclonal antibody raised against Immunogen-2 of Example 9 was removed from fridge or freezer and brought to room temperature. The antibody was diluted to 2.5 μg/ml in 10 mM Tris pH 8.5 and all appropriate wells are coated at 125 μl/well at 37° C. for 2 hours or at 4° C. overnight. The plate was washed 4 times over a period of 10 minutes with working strength tris-buffered saline and tween 20 (TBST) wash buffer and tapped dry. 50 μl of working strength TBST was pipetted into the appropriate wells. Dilutions of target analyte and potential crossreactant(s) were prepared in working strength TBST and pipetted (50 μl) into the appropriate wells beginning with the lowest concentration to the highest concentration. Hapten-HRP (Tracer-1) conjugate at the appropriate concentration was prepared in conjugate dilution buffer and 75 μl into pipetted into appropriate wells. The plate was tapped gently to mix contents, sealed and incubated at 25° C. for 1 hour. The plate was washed 6 times over a 10-15 minute period (3 quick washes followed by 3 additional washes over 12 minutes) and tapped dry thoroughly onto tissue paper. Trimethylbenzidine (TMB) solution (125 μl) was added to each well and tapped gently, and the plate was incubated at room temperature for 20 minutes in the dark. The reaction was stopped by addition of 125 μl of 0.2 M sulphuric acid to each well and the absorbance measured at 450 nm using an ELISA plate reader (Biotek Elx800).
Background: In an ELISA, binding on a coated surface is turned into a signal by an enzyme label.

For series [5], the system named is Immunanalysis Tramadol commercial immunoassay. The note with it: cited from earlier work.
Series [6] deals with Neogen Tramadol commercial immunoassay. The note with it: cited from earlier work.
In series [7] the test system is Bio-Quant Tramadol commercial immunoassay. The note with it: cited from earlier work.
For series [8], the system named is antibody specific to mitragynine. The series is described as follows: ELISA for mitragynine and 8-desmethylmitragynine (polyclonal antibody to mitragynine). In kind it is binding. The settings on record: for % CR: based on 100% specificity to mitragynine; for IC50: standard concentration which produces 50% B/B0. An excerpt: In one embodiment, the antibodies and immunoassay methods and kits for mitragynine (kratom), are as described in U.S. patent application Ser. No. 14/184,422, filed Feb. 19, 2014 entitled “Immunoassay for Detecting Kratom, its Constituents and their Use” the entire contents of which are incorporated herein by reference. In particular, U.S. patent application Ser. No. 14/184,422 describes a polyclonal antibody which that binds specifically to an epitope of one or more of mitragynine, 8-desmethylmitragynine, 8-sulphonylmitragynine, and 8-glucuronidylmitragynine which was raised to an immunogen having the structure of:
[drawing 5] • wherein HRP is horseradish peroxidase.

Series [9] has the same test system. The settings on record: polyclonal antibody of U.S. application 14/184,422, based on 100% to mitragynine; cited from earlier work.
The mark [10] stands for this setting: antibodies from three sheep immunised with Immunogen-2.

As a reminder, the IC50 is the concentration needed to halve the response being measured. Low readings indicate higher potency, high ones lower potency. For the compound `CNC[C@@H]1CCCC[C@@]1(O)c1cccc(OC)c1` (racemic) [N-Desmethyltramadol, (±)-cis-2-[(methylamino)methyl]-1-(3-methoxyphenyl)cyclohexanol], the Urinary excretory amount in [1] is 2-31%. Further, the “% Cross-reactivity” value in series [2] is listed as 4%; in series [3], under 2%; in [5], 44%; in [6], 6%; in [7], under 5%. For the same compound, the B/Bo in [4] (0.156 ng/ml analyte) came to 97; in series [4] (0.313 ng/ml analyte), 98; in series [4] (0.625 ng/ml analyte), 99; in series [4] (1.250 ng/ml analyte), 100; in series [4] (2.500 ng/ml analyte), 99; in series [4] (5.000 ng/ml analyte), 97. The B/Bo in series [4] (10.000 ng/ml analyte) is listed as 98. In series [4] (setting [10]), the “cross-reactivity (in words)” value is reported as “no cross-reactivity”. Further, the IC50 in series [4] (antibody raised against Immunogen-2, Tracer-1) is >>10 ng/ml. Further, in [4] (at the concentrations tested (Table 2)), the “binding (in words)” value is listed as “no appreciable binding”. Further, the “% CR” value in series [4] is reported as <<1.78%.
On to `COc1cccc([C@]2(O)CCCC[C@H]2CN(C)C)c1` (racemic) [Tramadol, (±)-cis-2-[(dimethylamino)methyl]-1-(3-methoxyphenyl)cyclohexanol hydrochloride], for which the Urinary excretory amount in series [1] is 12-32%.
As for `CC[C@@H]1CN2CCc3c([nH]c4cccc(O)c34)[C@@H]2C[C@@H]1/C(=C\OC)C(=O)OC` [8-Desmethylmitragynine, 8-desmethylmitragynine], the B/Bo came to 74 in series [8] (0.313 ng/ml analyte); 63 in [8] (0.625 ng/ml analyte); 54 in series [8] (1.250 ng/ml analyte); 42 in series [8] (2.500 ng/ml analyte); 29 in series [8] (5.000 ng/ml analyte); 18 in [8] (10.000 ng/ml analyte). The B/Bo in series [8] (20.000 ng/ml analyte) is recorded as 13. The “% CR” value in [8] stood at 77.87%. This compound gave an IC50 in series [8] of 1.532 ng/mL (≈ 3.98 nM). Also, the cross-reactivity result in series [9] is reported as “about 77.87%”.
`CC[C@@H]1CN2CCc3c([nH]c4cccc(OC)c34)[C@@H]2C[C@@H]1/C(=C\OC)C(=O)OC` [Mitragynine, mitragynine]: the B/Bo in series [8] (0.313 ng/ml analyte) is reported as 75; in series [8] (0.625 ng/ml analyte) it was 63; in series [8] (1.250 ng/ml analyte), 49; in series [8] (2.500 ng/ml analyte), 37; in series [8] (5.000 ng/ml analyte) it was 25; in [8] (10.000 ng/ml analyte), 17. In addition, in [8] (20.000 ng/ml analyte), the B/Bo was 11. Besides, the “% CR” value in series [8] amounted to 100.00%. Further, in series [8], the IC50 is 1.193 ng/mL (≈ 2.99 nM). Besides, in series [9], the cross-reactivity is reported as 100%.
Take “(±)-cis-2-[(dimethylamino)methyl]-1-(3 hydroxyphenyl)-cyclohexanol [O-Desmethyltramadol]”: the Urinary excretory amount in series [1] is 5-15%. The “% Cross-reactivity” value in series [2] was 57%; in series [3], 40%; in [5], 6%; in [6] it was 27%; in series [7], 100%. In addition, the B/Bo in [4] (0.156 ng/ml analyte) is 53; in series [4] (0.313 ng/ml analyte) it was 37; in series [4] (0.625 ng/ml analyte), 24; in [4] (1.250 ng/ml analyte), 16; in series [4] (2.500 ng/ml analyte) it was 10; in series [4] (5.000 ng/ml analyte), 6. In series [4] (10.000 ng/ml analyte), this compound came in with a B/Bo of 4. The “IC50 of antibodies to O-desmethyltramadol” value in series [4] (setting [10]) is 0.178 ng/mL and 0.181 ng/mL and 0.214 ng/mL. In addition, the “% CR” value in series [4] worked out at 100%.
